# From patent publication US20210070748A1, “INHIBITORS OF BRUTONS TYROSINE KINASE” (Pharmacyclics LLC, priority 2015, published 2021)
# pIC50: −log10 of the molar value.
# Experiments:
# TEC = target: T1, TEC (Homo sapiens, UniProt P42680); assay: Inhibition of a panel of kinases, in vitro HotSpot kinase assay: TEC; format: biochemical; details: D-compounds panel data; 1 μM ATP
# T1 sequence (P42680 1-631): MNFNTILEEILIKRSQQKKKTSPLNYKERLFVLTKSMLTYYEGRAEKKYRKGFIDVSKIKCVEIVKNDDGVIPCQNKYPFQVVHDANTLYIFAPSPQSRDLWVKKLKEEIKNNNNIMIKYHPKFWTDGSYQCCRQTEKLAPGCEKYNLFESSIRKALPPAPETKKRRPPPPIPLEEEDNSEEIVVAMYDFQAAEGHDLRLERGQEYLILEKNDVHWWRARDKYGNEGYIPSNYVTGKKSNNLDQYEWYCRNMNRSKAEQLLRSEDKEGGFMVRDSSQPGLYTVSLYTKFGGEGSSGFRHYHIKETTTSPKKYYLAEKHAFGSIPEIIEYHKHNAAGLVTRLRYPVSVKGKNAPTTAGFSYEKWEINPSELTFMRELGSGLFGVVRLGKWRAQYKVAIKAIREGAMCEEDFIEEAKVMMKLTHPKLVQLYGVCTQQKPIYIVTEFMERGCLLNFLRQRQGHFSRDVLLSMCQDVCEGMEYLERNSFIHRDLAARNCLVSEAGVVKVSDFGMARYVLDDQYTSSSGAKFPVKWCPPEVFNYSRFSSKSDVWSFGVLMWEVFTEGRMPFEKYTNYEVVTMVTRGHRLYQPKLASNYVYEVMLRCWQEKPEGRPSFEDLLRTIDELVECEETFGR
# Protocol: The degree of inhibition of a panel of kinases is determined using the in vitro HotSpot kinase assay (purified enzymes, ^33P-ATP, an appropriate substrate and 1 μM ATP).
# JAK3 = target: T2, JAK3 (Homo sapiens, UniProt P52333); assay: Inhibition of a panel of kinases, in vitro HotSpot kinase assay: JAK3; format: biochemical; details: D-compounds panel data; 1 μM ATP; read-out: IC50 JAK3
# T2 sequence (P52333 1-1124): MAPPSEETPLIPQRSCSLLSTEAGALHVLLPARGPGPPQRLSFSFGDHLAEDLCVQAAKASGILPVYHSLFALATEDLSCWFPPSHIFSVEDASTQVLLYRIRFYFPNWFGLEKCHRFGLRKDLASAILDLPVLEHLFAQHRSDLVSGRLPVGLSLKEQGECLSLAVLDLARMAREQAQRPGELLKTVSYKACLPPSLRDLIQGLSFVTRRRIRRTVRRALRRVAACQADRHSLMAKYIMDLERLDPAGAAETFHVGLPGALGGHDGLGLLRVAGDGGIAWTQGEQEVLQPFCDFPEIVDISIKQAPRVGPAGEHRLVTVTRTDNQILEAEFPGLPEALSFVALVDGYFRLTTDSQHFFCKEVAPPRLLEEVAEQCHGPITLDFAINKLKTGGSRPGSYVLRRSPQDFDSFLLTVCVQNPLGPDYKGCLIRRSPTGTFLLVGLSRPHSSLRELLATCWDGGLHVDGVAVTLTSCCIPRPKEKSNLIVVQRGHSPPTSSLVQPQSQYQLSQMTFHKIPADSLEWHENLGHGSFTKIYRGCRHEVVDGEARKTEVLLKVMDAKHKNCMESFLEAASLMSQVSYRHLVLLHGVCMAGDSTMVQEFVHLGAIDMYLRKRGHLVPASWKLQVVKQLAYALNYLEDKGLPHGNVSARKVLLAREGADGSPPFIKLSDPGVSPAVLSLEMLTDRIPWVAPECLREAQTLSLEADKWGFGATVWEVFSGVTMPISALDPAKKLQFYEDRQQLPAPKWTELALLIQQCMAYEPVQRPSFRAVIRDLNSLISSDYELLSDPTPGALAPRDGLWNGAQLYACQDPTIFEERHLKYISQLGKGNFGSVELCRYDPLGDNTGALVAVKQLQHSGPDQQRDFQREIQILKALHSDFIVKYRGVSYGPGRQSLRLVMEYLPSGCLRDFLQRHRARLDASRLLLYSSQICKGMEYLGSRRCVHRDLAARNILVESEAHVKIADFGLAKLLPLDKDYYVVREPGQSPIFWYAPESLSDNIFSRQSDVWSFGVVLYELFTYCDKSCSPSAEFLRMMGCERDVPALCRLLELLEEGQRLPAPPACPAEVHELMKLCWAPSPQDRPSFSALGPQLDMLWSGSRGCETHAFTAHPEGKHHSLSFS
SMILES,pIC50 (TEC),pIC50 (JAK3)
"C[C@@H]1CC[C@@H](NC(=O)c2ccc(C3CC3)cc2)CN1c1cnc(C(N)=O)c(Nc2cnn(C)c2)n1 [Example D-143, 5-[(2R,5R)-5-(4-cyclopropylbenzamido)-2-methylpiperidin-1-yl]-3-[(1-methyl-1H-pyrazol-4-yl)amino]pyrazine-2-carboxamide]",6.00 to 7.00,< 5.00
"C[C@H]1CC[C@H](NC(=O)c2ccc(C3CC3)cc2)CN1c1cnc(C(N)=O)c(Nc2cnn(C)c2)n1 [Example D-144, 5-[(2S,5S)-5-(4-cyclopropylbenzamido)-2-methylpiperidin-1-yl]-3-[(1-methyl-1H-pyrazol-4-yl)amino]pyrazine-2-carboxamide]",5.00 to 6.00,< 5.00
"C[C@@H]1CC[C@H](NC(=O)c2ccc(C3CC3)cc2)CN1c1cnc(C(N)=O)c(Nc2cnn(C)c2)n1 [Example D-145, 5-[(2R,5S)-5-(4-cyclopropylbenzamido)-2-methylpiperidin-1-yl]-3-[(1-methyl-1H-pyrazol-4-yl)amino]pyrazine-2-carboxamide]",5.00 to 6.00,< 5.00
"C[C@@H]1[C@H](NC(=O)c2ccc(C3CC3)cc2)CCCN1c1cnc(C(N)=O)c(Nc2ccc(N3CCN(C)CC3)c(F)c2)n1 [Example D-146, 5-[(2R,3R)-3-(4-cyclopropylbenzamido)-2-methylpiperidin-1-yl]-3-{[3-fluoro-4-(4-methylpiperazin-1-yl)phenyl]amino}pyrazine-2-carboxamide]",7.00 to 8.00,5.00 to 6.00
"Cn1cc(Nc2nc(N3CCCC4(C3)CN(c3ccc(C5CC5)cc3)C(=O)O4)cnc2C(N)=O)cn1 [Example D-147, 5-[3-(4-cyclopropylphenyl)-2-oxo-1-oxa-3,7-diazaspiro[4.5]decan-7-yl]-3-[(1-methyl-1H-pyrazol-4-yl)amino]pyrazine-2-carboxamide]",6.00 to 7.00,5.00 to 6.00
"Cc1cccc(-c2cnc(C3CCCN(c4cnc(C(N)=O)c(Nc5cnn(C)c5)n4)C3)[nH]2)c1 [Example D-148, 3-[(1-methyl-1H-pyrazol-4-yl)amino]-5-{3-[5-(3-methylphenyl)-1H-imidazol-2-yl]piperidin-1-yl}pyrazine-2-carboxamide]",6.00 to 7.00,5.00 to 6.00
"C[C@@H]1CC[C@H](NC(=O)c2ccc(C3CC3)cc2)CN1c1cnc(C(N)=O)c(Nc2ccc(N3CCN(C)CC3)c(F)c2)n1 [Example D-149, 5-[(2R,5 S)-5-(4-cyclopropylbenzamido)-2-methylpiperidin-1-yl]-3-{[3-fluoro-4-(4-methylpiperazin-1-yl)phenyl]amino}pyrazine-2-carboxamide]",6.00 to 7.00,5.00 to 6.00
"C[C@H]1CC[C@@H](NC(=O)c2ccc(C3CC3)cc2)CN1c1cnc(C(N)=O)c(Nc2ccc(N3CCN(C)CC3)c(F)c2)n1 [Example D-150, 5-[(2S,5R)-5-(4-cyclopropylbenzamido)-2-methylpiperidin-1-yl]-3-{[3-fluoro-4-(4-methylpiperazin-1-yl)phenyl]amino}pyrazine-2-carboxamide]",≥ 8.00,5.00 to 6.00
"C[C@@H]1CC[C@H](NC(=O)N(C)C)CN1c1cnc(C(N)=O)c(Nc2cnn(C)c2)n1 [Example D-151, 5-[(2R,5S)-5-[(dimethylcarbamoyl)amino]-2-methylpiperidin-1-yl]-3-[(1-methyl-1H-pyrazol-4-yl)amino]pyrazine-2-carboxamide]",7.00 to 8.00,< 5.00
"C[C@H]1CC[C@@H](NC(=O)N(C)C)CN1c1cnc(C(N)=O)c(Nc2cnn(C)c2)n1 [Example D-152, 5-[(2S,5R)-5-[(dimethylcarbamoyl)amino]-2-methylpiperidin-1-yl]-3-[(1-methyl-1H-pyrazol-4-yl)amino]pyrazine-2-carboxamide]",7.00 to 8.00,5.00 to 6.00
"C[C@@H]1CC[C@H](NC(=O)c2ccc(C3CC3)cc2)CN1c1cnc(C(N)=O)c(Nc2ccc(N3CCN(C)CC3)cc2)n1 [Example D-153, 5-[(2R,5S)-5-(4-cyclopropylbenzamido)-2-methylpiperidin-1-yl]-3-{[4-(4-methylpiperazin-1-yl)phenyl]amino}pyrazine-2-carboxamide]",≥ 8.00,6.00 to 7.00
"C[C@H]1CC[C@@H](NC(=O)c2ccc(C3CC3)cc2)CN1c1cnc(C(N)=O)c(Nc2ccc(N3CCN(C)CC3)cc2)n1 [Example D-154, 5-[(2S,5R)-5-(4-cyclopropylbenzamido)-2-methylpiperidin-1-yl]-3-{[4-(4-methylpiperazin-1-yl)phenyl]amino}pyrazine-2-carboxamide]",6.00 to 7.00,6.00 to 7.00
"CN(C)c1ccc2c(=O)n([C@@H]3CCCN(c4cnc(C(N)=O)c(Nc5cnn(C)c5)n4)C3)ccc2c1 [Example D-155, 5-[(3R)-3-[6-(dimethylamino)-1-oxo-1,2-dihydroisoquinolin-2-yl]piperidin-1-yl]-3-[(1-methyl-1H-pyrazol-4-yl)amino]pyrazine-2-carboxamide]",7.00 to 8.00,6.00 to 7.00
"CN(C)c1ccc2c(c1)CCN([C@@H]1CCCN(c3cnc(C(N)=O)c(Nc4cnn(C)c4)n3)C1)C2=O [Example D-156, 5-[(3R)-3-[6-(dimethylamino)-1-oxo-1,2,3,4-tetrahydroisoquinolin-2-yl]piperidin-1-yl]-3-[(1-methyl-1H-pyrazol-4-yl)amino]pyrazine-2-carboxamide]",7.00 to 8.00,5.00 to 6.00
"C[C@H]1CC[C@@H](NC(=O)c2ccc(C(C)(C)O)cc2)CN1c1nnc(C(N)=O)c(Nc2cnn(C)c2)n1 [Example D-157, 3-[(2S,5R)-5-[4-(2-hydroxypropan-2-yl)benzamido]-2-methylpiperidin-1-yl]-5-[(1-methyl-1H-pyrazol-4-yl)amino]-1,2,4-triazine-6-carboxamide]",≥ 8.00,6.00 to 7.00
"Cc1cc(Nc2nc(N3CCC[C@@H](NC(=O)c4ccc(C(C)(C)O)cc4)C3)cnc2C(N)=O)sn1 [Example D-158, 5-[(3R)-3-[4-(2-hydroxypropan-2-yl)benzamido]piperidin-1-yl]-3-[(3-methyl-1,2-thiazol-5-yl)amino]pyrazine-2-carboxamide]",7.00 to 8.00,5.00 to 6.00
"Cc1cc(Nc2nc(N3CCC[C@@H](NC(=O)c4ccc(C(C)(C)O)cc4)[C@H]3C)cnc2C(N)=O)sn1 [Example D-159, 5-[(2R,3R)-3-[4-(2-hydroxypropan-2-yl)benzamido]-2-methylpiperidin-1-yl]-3-[(3-methyl-1,2-thiazol-5-yl)amino]pyrazine-2-carboxamide]",≥ 8.00,6.00 to 7.00
"C[C@@H]1[C@H](NC(=O)c2ccc(C(C)(C)O)c(F)c2)CCCN1c1cnc(C(N)=O)c(Nc2cnn(C)c2)n1 [Example D-160, 5-[(2R,3R)-3-[3-fluoro-4-(2-hydroxypropan-2-yl)benzamido]-2-methylpiperidin-1-yl]-3-[(1-methyl-1H-pyrazol-4-yl)amino]pyrazine-2-carboxamide]",≥ 8.00,6.00 to 7.00
"COC(C)(C)c1ccc(C(=O)N[C@@H]2CCCN(c3cnc(C(N)=O)c(Nc4cnn(C)c4)n3)[C@@H]2C)cc1 [Example D-161, 5-[(2R,3R)-3-[4-(2-methoxypropan-2-yl)benzamido]-2-methylpiperidin-1-yl]-3-[(1-methyl-1H-pyrazol-4-yl)amino]pyrazine-2-carboxamide]",≥ 8.00,5.00 to 6.00
